Measured values from ChEMBL document CHEMBL5653631, “A Potent and Selective ULK1 Inhibitor Suppresses Autophagy and Sensitizes Cancer Cells to Nutrient Stress” (iScience, 2018).

What was measured:
[1] = target: SRSF protein kinase 1 (Homo sapiens) (UniProt Q96SB4); assay: Inhibition of human recombinant SRPK1 at 500 nM in presence of ATP by radiometric assay relative to control
[2] = target: T1, Serine/threonine-protein kinase TAO2 (Homo sapiens) (UniProt Q9UL54); assay: Inhibition of human recombinant TAO2 at 500 nM related to control ULK1
T1 sequence (whole entry): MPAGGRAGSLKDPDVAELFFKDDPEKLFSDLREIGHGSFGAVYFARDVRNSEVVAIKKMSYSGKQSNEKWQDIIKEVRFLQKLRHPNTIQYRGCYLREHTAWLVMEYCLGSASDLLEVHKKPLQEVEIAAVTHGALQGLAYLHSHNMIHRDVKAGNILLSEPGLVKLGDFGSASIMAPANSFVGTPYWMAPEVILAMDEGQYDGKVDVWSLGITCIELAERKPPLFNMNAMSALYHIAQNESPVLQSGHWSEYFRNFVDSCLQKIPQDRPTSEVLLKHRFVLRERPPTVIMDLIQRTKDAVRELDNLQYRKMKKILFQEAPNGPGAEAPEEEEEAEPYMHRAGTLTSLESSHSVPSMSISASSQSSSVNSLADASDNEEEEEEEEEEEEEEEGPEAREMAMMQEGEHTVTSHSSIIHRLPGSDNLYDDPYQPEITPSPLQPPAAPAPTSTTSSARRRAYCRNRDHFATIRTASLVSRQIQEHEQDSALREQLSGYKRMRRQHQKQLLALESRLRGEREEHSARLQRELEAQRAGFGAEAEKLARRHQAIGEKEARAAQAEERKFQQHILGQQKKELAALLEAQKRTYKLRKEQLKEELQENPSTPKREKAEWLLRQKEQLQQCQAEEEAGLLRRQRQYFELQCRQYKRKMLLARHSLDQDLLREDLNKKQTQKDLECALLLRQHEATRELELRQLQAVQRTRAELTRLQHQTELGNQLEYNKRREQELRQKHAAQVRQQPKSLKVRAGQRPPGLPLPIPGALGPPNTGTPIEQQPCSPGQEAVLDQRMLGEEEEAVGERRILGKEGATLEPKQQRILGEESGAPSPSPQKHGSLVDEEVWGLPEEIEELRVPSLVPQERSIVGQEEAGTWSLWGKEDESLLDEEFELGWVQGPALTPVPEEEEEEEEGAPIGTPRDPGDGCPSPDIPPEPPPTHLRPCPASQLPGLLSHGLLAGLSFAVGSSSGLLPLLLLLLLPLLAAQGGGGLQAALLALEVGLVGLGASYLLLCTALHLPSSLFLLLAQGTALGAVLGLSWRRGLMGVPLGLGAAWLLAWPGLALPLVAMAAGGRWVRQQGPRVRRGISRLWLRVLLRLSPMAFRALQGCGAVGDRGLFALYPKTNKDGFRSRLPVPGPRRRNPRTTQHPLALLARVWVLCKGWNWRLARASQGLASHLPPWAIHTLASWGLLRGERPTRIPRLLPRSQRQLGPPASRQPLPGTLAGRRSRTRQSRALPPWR

[3] = target: Serine/threonine-protein kinase B-raf (Homo sapiens) (UniProt P15056); assay: Inhibition of human recombinant BRAF at 500 nM related to control ULK1
Serine/threonine-protein kinase B-raf (Homo sapiens), sequence (P15056 whole entry): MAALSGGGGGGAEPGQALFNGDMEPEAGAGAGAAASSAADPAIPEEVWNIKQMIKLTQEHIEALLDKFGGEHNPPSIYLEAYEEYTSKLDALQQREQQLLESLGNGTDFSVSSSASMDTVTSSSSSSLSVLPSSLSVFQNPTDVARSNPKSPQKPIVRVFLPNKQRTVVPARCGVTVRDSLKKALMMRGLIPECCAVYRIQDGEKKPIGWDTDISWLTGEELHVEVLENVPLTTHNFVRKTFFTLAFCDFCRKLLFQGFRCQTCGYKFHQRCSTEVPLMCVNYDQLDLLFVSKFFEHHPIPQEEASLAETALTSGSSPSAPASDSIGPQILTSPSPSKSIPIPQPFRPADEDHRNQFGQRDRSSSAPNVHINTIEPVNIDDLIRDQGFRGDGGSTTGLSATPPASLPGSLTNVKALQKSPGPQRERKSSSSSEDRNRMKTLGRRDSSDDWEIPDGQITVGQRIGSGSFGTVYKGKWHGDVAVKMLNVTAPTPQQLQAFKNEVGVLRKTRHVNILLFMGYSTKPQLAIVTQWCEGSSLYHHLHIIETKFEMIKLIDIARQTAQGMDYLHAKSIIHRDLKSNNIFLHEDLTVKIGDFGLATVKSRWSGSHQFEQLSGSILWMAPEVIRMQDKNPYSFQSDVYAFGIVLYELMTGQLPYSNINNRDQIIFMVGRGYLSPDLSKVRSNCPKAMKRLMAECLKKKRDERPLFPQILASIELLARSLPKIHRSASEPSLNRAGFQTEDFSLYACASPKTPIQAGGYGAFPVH

[4] = target: Calcium/calmodulin-dependent protein kinase type II subunit gamma (Homo sapiens) (UniProt Q13555); assay: Inhibition of human recombinant CaMK2g at 500 nM related to control ULK1
Calcium/calmodulin-dependent protein kinase type II subunit gamma (Homo sapiens), sequence (Q13555 whole entry): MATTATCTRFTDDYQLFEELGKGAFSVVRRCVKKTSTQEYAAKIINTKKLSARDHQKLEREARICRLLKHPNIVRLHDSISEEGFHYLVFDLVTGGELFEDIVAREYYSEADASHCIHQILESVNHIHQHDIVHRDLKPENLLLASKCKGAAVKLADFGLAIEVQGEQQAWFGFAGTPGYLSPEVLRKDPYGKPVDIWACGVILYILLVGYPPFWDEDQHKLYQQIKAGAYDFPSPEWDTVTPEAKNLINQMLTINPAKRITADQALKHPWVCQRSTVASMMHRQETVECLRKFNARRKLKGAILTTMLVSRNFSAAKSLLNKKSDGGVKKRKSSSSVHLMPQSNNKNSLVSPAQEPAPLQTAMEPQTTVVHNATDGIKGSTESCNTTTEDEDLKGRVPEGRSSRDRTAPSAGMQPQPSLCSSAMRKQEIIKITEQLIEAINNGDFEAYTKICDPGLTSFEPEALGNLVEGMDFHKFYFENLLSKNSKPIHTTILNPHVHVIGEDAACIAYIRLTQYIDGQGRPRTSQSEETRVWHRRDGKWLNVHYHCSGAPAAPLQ

[5] = target: Serine/threonine-protein kinase 26 (Homo sapiens) (UniProt Q9P289); assay: Inhibition of human recombinant MST4 at 500 nM in presence of ATP by radiometric assay relative to control
[6] = target: Mitogen-activated protein kinase 1 (Homo sapiens) (UniProt P28482); assay: Inhibition of human recombinant Erk2 at 500 nM related to control ULK1
Mitogen-activated protein kinase 1 (Homo sapiens), sequence (P28482 whole entry): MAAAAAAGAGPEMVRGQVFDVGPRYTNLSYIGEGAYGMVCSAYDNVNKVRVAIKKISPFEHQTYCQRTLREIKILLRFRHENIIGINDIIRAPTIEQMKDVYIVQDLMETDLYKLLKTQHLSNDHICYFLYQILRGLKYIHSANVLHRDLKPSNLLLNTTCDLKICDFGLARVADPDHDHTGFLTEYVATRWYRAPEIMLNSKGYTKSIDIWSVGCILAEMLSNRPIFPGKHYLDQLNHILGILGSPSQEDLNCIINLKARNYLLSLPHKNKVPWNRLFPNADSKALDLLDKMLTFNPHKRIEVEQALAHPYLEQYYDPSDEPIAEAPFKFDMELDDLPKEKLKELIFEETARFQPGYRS

[7] = target: Serine/threonine-protein kinase Chk2 (Homo sapiens) (UniProt O96017); assay: Inhibition of human recombinant CHK2 at 15 nM in presence of ATP by radiometric assay relative to control
Serine/threonine-protein kinase Chk2 (Homo sapiens), sequence (O96017 whole entry): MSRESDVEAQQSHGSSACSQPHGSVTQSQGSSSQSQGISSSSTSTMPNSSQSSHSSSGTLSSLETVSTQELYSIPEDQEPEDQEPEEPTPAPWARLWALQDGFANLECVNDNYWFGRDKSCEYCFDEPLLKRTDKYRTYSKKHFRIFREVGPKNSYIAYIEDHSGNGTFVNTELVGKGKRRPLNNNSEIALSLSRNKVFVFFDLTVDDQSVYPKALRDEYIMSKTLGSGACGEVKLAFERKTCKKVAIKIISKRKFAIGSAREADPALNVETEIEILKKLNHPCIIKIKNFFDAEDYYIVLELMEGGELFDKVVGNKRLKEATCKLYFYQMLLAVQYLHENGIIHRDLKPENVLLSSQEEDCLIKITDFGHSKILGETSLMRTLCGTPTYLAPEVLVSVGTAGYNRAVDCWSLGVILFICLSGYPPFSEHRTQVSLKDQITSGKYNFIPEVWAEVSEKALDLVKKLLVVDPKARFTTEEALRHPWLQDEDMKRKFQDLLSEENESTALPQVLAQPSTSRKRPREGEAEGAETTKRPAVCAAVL

[8] = target: Serine/threonine-protein kinase WNK3 (Homo sapiens) (UniProt Q9BYP7); assay: Inhibition of human recombinant Wnk3 at 15 nM related to control ULK1
[9] = target: Serine/threonine-protein kinase Chk2 (Homo sapiens) (UniProt O96017); assay: Inhibition of human recombinant CHK2 at 15 nM related to control ULK1
[10] = target: Serine/threonine-protein kinase 33 (Homo sapiens) (UniProt Q9BYT3); assay: Inhibition of human recombinant STK33 at 40 nM in presence of ATP by radiometric assay relative to control
Serine/threonine-protein kinase 33 (Homo sapiens), sequence (Q9BYT3 whole entry, looked up): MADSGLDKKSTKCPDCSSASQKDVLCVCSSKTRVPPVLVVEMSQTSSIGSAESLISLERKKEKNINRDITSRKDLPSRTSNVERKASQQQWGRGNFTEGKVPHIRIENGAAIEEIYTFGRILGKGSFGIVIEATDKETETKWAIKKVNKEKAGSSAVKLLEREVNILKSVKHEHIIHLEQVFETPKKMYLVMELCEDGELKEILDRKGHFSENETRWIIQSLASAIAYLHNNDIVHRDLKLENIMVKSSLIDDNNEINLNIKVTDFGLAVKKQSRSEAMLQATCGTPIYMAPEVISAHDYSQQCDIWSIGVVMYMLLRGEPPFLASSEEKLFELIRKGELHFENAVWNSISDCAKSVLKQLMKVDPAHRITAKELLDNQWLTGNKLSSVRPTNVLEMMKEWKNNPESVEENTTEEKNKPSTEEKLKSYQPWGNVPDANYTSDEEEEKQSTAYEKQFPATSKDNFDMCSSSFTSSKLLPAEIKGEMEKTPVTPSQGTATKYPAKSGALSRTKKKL

[11] = target: Calcium/calmodulin-dependent protein kinase type II subunit gamma (Homo sapiens) (UniProt Q13555); assay: Inhibition of human recombinant CaMK2g at 40 nM related to control ULK1
[12] = target: Serine/threonine-protein kinase pim-3 (Homo sapiens) (UniProt Q86V86); assay: Inhibition of human recombinant PIM3 at 40 nM in presence of ATP by radiometric assay relative to control
[13] = target: T2, Dual specificity mitogen-activated protein kinase kinase 6 (Homo sapiens) (UniProt P52564); assay: Inhibition of human recombinant MAP2K6 at 40 nM in presence of ATP by radiometric assay relative to control
T2 sequence (whole entry): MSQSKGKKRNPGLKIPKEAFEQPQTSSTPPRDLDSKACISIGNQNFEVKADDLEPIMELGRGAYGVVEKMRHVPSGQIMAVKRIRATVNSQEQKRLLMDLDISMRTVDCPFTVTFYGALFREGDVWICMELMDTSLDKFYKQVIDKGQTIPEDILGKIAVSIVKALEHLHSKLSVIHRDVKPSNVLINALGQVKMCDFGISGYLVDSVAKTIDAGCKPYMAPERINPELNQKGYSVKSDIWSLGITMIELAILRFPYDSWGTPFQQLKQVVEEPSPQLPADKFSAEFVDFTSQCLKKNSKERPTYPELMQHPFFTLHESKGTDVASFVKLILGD

[14] = target: Serine/threonine-protein kinase N1 (Homo sapiens) (UniProt Q16512); assay: Inhibition of human recombinant PKN1 at 40 nM in presence of ATP by radiometric assay relative to control
Serine/threonine-protein kinase N1 (Homo sapiens), sequence (Q16512 2-942 limits assumed): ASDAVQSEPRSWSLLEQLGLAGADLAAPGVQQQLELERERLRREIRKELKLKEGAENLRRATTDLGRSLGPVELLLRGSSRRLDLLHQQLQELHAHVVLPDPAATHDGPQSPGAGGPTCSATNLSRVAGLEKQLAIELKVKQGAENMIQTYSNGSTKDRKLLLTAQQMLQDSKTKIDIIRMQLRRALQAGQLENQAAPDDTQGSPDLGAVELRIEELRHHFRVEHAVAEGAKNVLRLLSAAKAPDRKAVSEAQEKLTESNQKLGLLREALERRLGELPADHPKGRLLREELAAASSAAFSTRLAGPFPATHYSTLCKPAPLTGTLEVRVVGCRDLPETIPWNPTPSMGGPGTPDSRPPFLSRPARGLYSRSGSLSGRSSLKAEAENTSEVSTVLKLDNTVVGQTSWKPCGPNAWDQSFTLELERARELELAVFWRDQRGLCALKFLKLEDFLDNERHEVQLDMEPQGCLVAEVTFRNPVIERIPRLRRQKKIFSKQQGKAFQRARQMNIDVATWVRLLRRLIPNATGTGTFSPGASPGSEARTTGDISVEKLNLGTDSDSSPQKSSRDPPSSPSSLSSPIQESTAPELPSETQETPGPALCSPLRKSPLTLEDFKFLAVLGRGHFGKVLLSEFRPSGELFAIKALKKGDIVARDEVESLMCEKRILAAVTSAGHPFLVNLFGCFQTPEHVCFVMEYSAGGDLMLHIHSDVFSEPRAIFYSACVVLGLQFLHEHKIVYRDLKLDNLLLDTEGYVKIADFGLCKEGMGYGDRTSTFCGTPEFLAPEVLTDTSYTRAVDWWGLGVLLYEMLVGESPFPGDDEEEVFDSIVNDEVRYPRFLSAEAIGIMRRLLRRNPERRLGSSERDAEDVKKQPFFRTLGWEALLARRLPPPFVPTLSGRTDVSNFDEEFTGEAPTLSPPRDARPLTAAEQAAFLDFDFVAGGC

[15] = target: BDNF/NT-3 growth factors receptor (Homo sapiens) (UniProt Q16620); assay: Inhibition of human recombinant TRKB at 40 nM in presence of ATP by radiometric assay relative to control
BDNF/NT-3 growth factors receptor (Homo sapiens), sequence (Q16620 32-822 limits assumed): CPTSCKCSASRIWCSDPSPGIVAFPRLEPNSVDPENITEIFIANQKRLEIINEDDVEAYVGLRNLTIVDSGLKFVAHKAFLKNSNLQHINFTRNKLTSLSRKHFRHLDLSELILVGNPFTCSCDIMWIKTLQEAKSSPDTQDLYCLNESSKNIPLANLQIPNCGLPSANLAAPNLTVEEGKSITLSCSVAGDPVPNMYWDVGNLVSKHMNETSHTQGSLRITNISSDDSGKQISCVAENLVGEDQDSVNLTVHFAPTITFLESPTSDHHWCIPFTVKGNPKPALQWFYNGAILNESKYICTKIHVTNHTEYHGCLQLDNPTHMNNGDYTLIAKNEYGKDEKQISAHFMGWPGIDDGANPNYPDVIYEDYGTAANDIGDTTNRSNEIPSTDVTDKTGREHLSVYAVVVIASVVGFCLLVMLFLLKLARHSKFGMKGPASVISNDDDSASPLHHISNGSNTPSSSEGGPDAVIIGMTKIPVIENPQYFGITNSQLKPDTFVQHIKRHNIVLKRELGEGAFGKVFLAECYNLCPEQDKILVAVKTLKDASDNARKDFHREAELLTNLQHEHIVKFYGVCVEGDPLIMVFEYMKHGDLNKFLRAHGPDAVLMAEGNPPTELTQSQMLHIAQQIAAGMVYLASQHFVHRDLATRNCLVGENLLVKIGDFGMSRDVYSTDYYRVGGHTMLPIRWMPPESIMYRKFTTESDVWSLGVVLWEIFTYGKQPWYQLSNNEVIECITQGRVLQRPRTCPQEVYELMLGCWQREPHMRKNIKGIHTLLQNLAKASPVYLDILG

How did the inhibition [1] turn out when `CNC(=O)c1ccccc1Oc1nc(Nc2cc(OC)c(OC)c(OC)c2)ncc1Br` was run?
The inhibition was 10%.

And the fold change (FC) [2]?
The fold change (FC) was 0.

What about the fold change (FC) [3] of the same compound?
The fold change (FC) was 0.11.

What about the fold change (FC) [4] of the same compound?
Its fold change (FC) is 0.03.

What about the inhibition [5] of the same compound?
Its inhibition is 0%.

What about the fold change (FC) [6] of the same compound?
The fold change (FC) was 0.

With `CC(C)[C@H](NC(=O)c1cc(-c2cnn3cc(-c4ccc(OCCN5CCCCC5)cc4)cnc23)cs1)C(F)(F)F` as the compound, how does the inhibition [7] read?
The inhibition was 0%.

What about the fold change (FC) [8] of the same compound?
The fold change (FC) was 0.

What about the fold change (FC) [9] of the same compound?
Its fold change (FC) is 0.

How did the inhibition [10] turn out when `O=C(N[C@@H](C1CC1)C(F)(F)F)c1cc(-c2cnn3cc(-c4ccc(F)cc4)cnc23)cs1` was run?
Its inhibition is 19%.

What about the fold change (FC) [11] of the same compound?
The fold change (FC) was 0.01.

What about the inhibition [12] of the same compound?
The inhibition was 0%.

What about the inhibition [13] of the same compound?
Its inhibition is 0%.

What about the inhibition [14] of the same compound?
Its inhibition is 0%.

What about the inhibition [15] of the same compound?
Its inhibition is 19%.
